Measured values taken from patent publication US5118346A, “Biocidally active compounds” (Ciba-Geigy Corporation, priority 1988, dated 1992).
Like-named read-outs stand apart in the source and are kept apart here.

What was measured:
[1] = system: mixture of algae Chlorella vulgaris, Chlorella spec. and Scenedesmus obliques; test: Algicide test in polyisobutylene roof sheeting; format: cell-based; details: for algae growth after 6 weeks: comparison film 2; for algae growth after 3 weeks: comparison film 2-3
Description: To test the activity against attack by algae, various concentrations, which can be seen from Table 3, of the compound according to Example 1 are incorporated into roof sheeting consisting of polyisobutylene. A roof sheeting without biocide is investigated as a comparison.
A 1 cm^2 piece of film from each test strip is kept in water for 5 days, in each case placed on an algae agar plate and inoculated with 0.1 ml of a 1+1+1 mixture of 14-day cultures of the algae Chlorella vulgaris and Chlorella spec. (isolated from damage cases in practice) and Scenedesmus obliques, which had been diluted 1/10 in saline.
After 3 weeks, the plates are evaluated and the films are placed in fresh agar and inoculated again.
Evaluation of the growth after 3 and 6 weeks under artificial light is performed in accordance with the following scheme.
2=partial growth on the film
3=growth up to the edge of the film
4=inhibiting aerola around the film <5 mm
5=inhibiting aerola around the film >5 mm
Example 19 is repeated, except that instead of the stated concentrations of compound according to Example 1 alone, a combination of 1% by weight of the compound according to Example 1 and 0.07% by weight of 2-methylthio-4-t-butylamino-6-cyclopropylamino-s-triazine is used.

Sacharomyces cerevisiae = test: Determination of the MIC against fungi, agar incorporation test; format: cell-based; details: for MIC: read-out: MIC against fungi, strain B
Description: (§1) Strains: A) Aspergillus niger, B) Sacharomyces cerevisiae, C) Penicillium funiculosum, D) Chaetomium globosum, E) Aureobasidium pullulans and F) Coniophora puteana.
(§2) The investigation is carried out by the known agar incorporation test in malt extract agar (Merck).

Penicillium funiculosum = test: as above; format: cell-based; details: for MIC: Talaromyces funiculosus, read-out: MIC against fungi, strain C
Description: as §1, §2

Aureobasidium pullulans = test: as above; format: cell-based; details: for MIC: read-out: MIC against fungi, strain E
Description: as §1, §2

wood-destroying fungi = test: Limit of activity against wood-destroying Basidiomycetes (EN 113), summary
From the text: (§3) Determination of the limit of the activity against wood-destroying Basidiomycetes bred on agar (in accordance with EN 113). The test methods described in this European Standard is a laboratory method which forms a basis for evaluation of the activity of a wood preservative against wood-destroying Basidiomycetes.

Aspergillus niger = test: Determination of the MIC against fungi, agar incorporation test; format: cell-based; details: for MIC: read-out: MIC against fungi, strain A
Description: as §1
(§4) The investigation is carried out by the known agar incorporation test in malt extract agar (Merck). For the inhibition, the various compounds are in each case added in an amount such that concentrations of 10, 50 and 100 mg/1 result in the agar. The concentrations (mg/1) required for inhibiting the growth of the fungi (starting from fungus spores dripped on) are illustrated in Table 2.

Coniophora puteana [2] = test: as above; format: cell-based; details: for MIC: read-out: MIC against fungi, strain F
Description: as §1, §4

Chaetomium globosum = test: as above; format: cell-based; details: for MIC: read-out: MIC against fungi, strain D
Description: as §1, §4

Gleophyllum trabeum = test: Limit of activity against wood-destroying Basidiomycetes (EN 113); set-up: species or system Gloeophyllum trabeum (Persoon ex Fries) Murrill; details: Gleophyllum trabeum strain 94, pine, 16 weeks
From the text: as §3
Gloeophyllum trabeum (Persoon ex Fries) Murrill, strain […], for soft timbers=strain 94, Breeding of the strain and composition of the nutrient medium were as described in EN 113.
(§5) Solutions of isopropanol/water (1:1) containing 0.2%, 0.5%, 1%, 2% and 5% of active substance according to Example 1 are prepared.
(§6) The specimen woods of pine, nominal dimensions: 50 mm×25 mm×15 mm, are obtained and prepared as described in EN 113.
(§7) The impregnation according to EN 113 ensures complete thorough impregnation of the specimen woods with the wood preservative solution.
(§8) The amount of preservative absorbed is converted into weight per unit volume of the wood. […]
(§9) The limit of the activity of a wood preservative is determined by the two amounts of wood preservative which correspond to the lowest concentration which preserves the wood and the next lowest concentration in the series, at which the wood is no longer adequately preserved. […]

Coniophora puteana [3] = test: as above; set-up: species or system Coniophora puteana (Schumacher ex Fries) Karsten; details: Coniophora puteana strain 91, pine, isopropanol/water (1:1), 16 weeks
From the text: as §3
Coniophora puteana (Schumacher ex Fries) Karsten, strain FPRL 11E, for soft timbers=strain 91, Breeding of the strain and composition of the nutrient medium were as described in EN 113.
as §5, §6, §7, §8, §9

Poria placenta = test: as above; set-up: species or system Poria placenta (Fries) Cooke sensu. J. Eriksson; details: Poria placenta strain 96, pine, isopropanol/water (1:1), 16 weeks
From the text: as §3
Poria placenta (Fries) Cooke sensu. J. Eriksson, strain SPRL 280, for soft timbers=strain 96, Breeding of the strain and composition of the nutrient medium were as described in EN 113.
as §5, §6, §7, §8, §9

hydroids = test: Anti-fouling paint exposure in the North Sea; details: 61/2 weeks, 0 = completely covered with growth, 10 = completely free
Description: (§10) To test the activity against growth on objects immersed in the sea, the compound according to Example 1 is incorporated into anti-fouling paints. An anti-fouling paint such as is known to the expert and which is based on vinyl chloride copolymer/rosin (2/1 part by weight) with a pigment volume concentration of about 40%, and a second anti-fouling paint of similar make-up but with a higher rosin content (vinyl chloride copolymer/rosin=1/1) are prepared. The compound according to Example 1 is incorporated into these paints, the paint is brushed onto specimen sheets and, after drying (10 days), the sheets are suspended in the North Sea. The corresponding paints but without adding of the product are exposed in the same way for comparison. On a rating scale of 0 (=completely covered with growth) to 10 (=completely free from growth), the following results are obtained after exposure for 61/2 weeks (growth by hydroids=HY; growth by barnacles=BA): […]

barnacles = test: Anti-fouling paint exposure in the North Sea; details: 61/2 weeks, 0 = completely covered with growth, 10 = completely free
Description: as §10

[4] = Sacharomyces cerevisiae, malt extract agar, tested 10, 50, 100 mg/l
[5] = Penicillium funiculosum, malt extract agar, tested 10, 50, 100 mg/l
[6] = malt extract agar, tested 10, 50, 100 mg/l

MIC (Sacharomyces cerevisiae; [4]) [µg/mL] | MIC (Penicillium funiculosum; [5]) [µg/mL] | MIC (Aureobasidium pullulans; [6]) [µg/mL] | MIC (Aspergillus niger; [6]) [µg/mL] | MIC (Chaetomium globosum; [6]) [µg/mL] | MIC (Coniophora puteana [2]; [6]) [µg/mL] | Compound | MIC (Aspergillus niger) [µg/mL] | further results
> 100 | 50 | 50 | > 100 | 100 | 50 | CCCCCCCCCCCC[N+](CC)(CC)CC [Example 7] | – | –
– | – | – | 50 | 50 | 50 | CCCCCCCCCCCCCC[N+](CC)(CC)CC [Example 8] | – | –
100 | 10 | 50 | 100 | 100 | 10 | CCCCCCCCCCCCCCCC[N+](CC)(CC)CC [Example 13] | – | –

Continued, compound first:

Compound | MIC (Sacharomyces cerevisiae; [4]) [µg/mL] | MIC (Penicillium funiculosum; [5]) [µg/mL] | MIC (Aureobasidium pullulans; [6]) [µg/mL] | MIC (Aspergillus niger; [6]) [µg/mL] | MIC (Chaetomium globosum; [6]) [µg/mL] | MIC (Coniophora puteana [2]; [6]) [µg/mL] | MIC (Aspergillus niger) [µg/mL] | further results
CCCCCCCCCCCCCC[P+](CCCC)(CCCC)CCCC [Example 1, Tri-n-butyl-n-tetradecylphosphonium tetrafluoborate] | 10 | 10 | 50 | 50 | – | – | – | algae growth after 6 weeks ([1]; 0,1 % by weight in film): 4 (inhibiting aerola around the film <5 mm); algae growth after 3 weeks ([1]; 0,1 % by weight in film): 4 (inhibiting aerola around the film <5 mm); algae growth after 6 weeks ([1]; 0,5 % by weight in film): 4 (inhibiting aerola around the film <5 mm); algae growth after 3 weeks ([1]; 0,5 % by weight in film): 4 (inhibiting aerola around the film <5 mm); algae growth after 6 weeks ([1]; 1 % by weight in film): 4 (inhibiting aerola around the film <5 mm); algae growth after 3 weeks ([1]; 1 % by weight in film): 4 (inhibiting aerola around the film <5 mm); activity against wood-destroying fungi (wood-destroying fungi): highly effective; MIC against fungi, strain F (Coniophora puteana [2]; [6]): 10 µg/mL; MIC against fungi, strain D (Chaetomium globosum; [6]): 10 µg/mL; Take-up (limit of the activity) (Gleophyllum trabeum): ≤ 1.0 kg/m^3; Effective concentration (Gleophyllum trabeum; isopropanol/water (1:1)): ≤ 0.2%; Effective concentration (Coniophora puteana [3]): 0.5-1.0%; Effective concentration (Poria placenta): 1.0-2.0%; growth by hydroids (HY), rating (hydroids; Vinyl/rosin 1:1 paint with additive, without additive HY 0): 4; growth by hydroids (HY), rating (hydroids; Vinyl/rosin 2:1 paint with additive, without additive HY 5): 8; growth by barnacles (BA), rating (barnacles; Vinyl/rosin 1:1 paint with additive, without additive BA 0): 10; growth by barnacles (BA), rating (barnacles; Vinyl/rosin 2:1 paint with additive, without additive BA 5): 8
CCCCCCCCCCCCCC[P+](CCCC)(CCCC)CCCC [Example 2, Tri-n-butyl-n-tetradecylphosphonium hexafluophosphate] | – | – | – | – | – | – | – | MIC against fungi, strain B (Sacharomyces cerevisiae; [4]): 10 µg/mL; MIC against fungi, strain C (Penicillium funiculosum; [5]): 10 µg/mL; MIC against fungi, strain E (Aureobasidium pullulans; [6]): 50 µg/mL; MIC against fungi, strain A (Aspergillus niger; [6]): 100 µg/mL; MIC against fungi, strain F (Coniophora puteana [2]; [6]): 100 µg/mL; MIC against fungi, strain D (Chaetomium globosum; [6]): 100 µg/mL
CCCCCCCCCCCC[P+](c1ccccc1)(c1ccccc1)c1ccccc1 [Example 3, Triphenyl-n-dodecylphosphonium tetrafluoborate] | – | – | – | – | – | – | 100 | MIC (Sacharomyces cerevisiae): 50 µg/mL; MIC (Penicillium funiculosum): 10 µg/mL; MIC (Aureobasidium pullulans): 10 µg/mL; MIC (Coniophora puteana [2]): 50 µg/mL; MIC (Chaetomium globosum): 50 µg/mL
CCCCCCCCCCCCCC[N+](CCCC)(CCCC)CCCC [Example 5, Tri-n-butyl-n-tetradecylammonium tetrafluoborate] | 50 | 50 | 50 | – | 50 | – | 100 | MIC (Coniophora puteana [2]): 100 µg/mL
CCCCCCCCCCCC[N+](CCO)(CCO)Cc1ccccc1 [Example 6, Bis(hydroxyethyl)benzyl-n-dodecylammonium tetrafluoborate] | 50 | 10 | 10 | – | 50 | 50 | > 100 | –
CCCCCCCCCCCCCCCCCC[N+](CC)(CC)CC [Example 9] | > 100 | 50 | 50 | > 100 | 50 | 50 | – | –
CCCCCCCCCCCCCC[N+](CCC)(CCC)CCC [Example 10] | 100 | 50 | 10 | 100 | 50 | 10 | – | –
CCCCCCCCCCCC[N+]1(Cc2ccccc2)CCOCC1 [Example 14] | – | 50 | – | – | – | 50 | > 100 | MIC (Sacharomyces cerevisiae): > 100 µg/mL; MIC (Aureobasidium pullulans): 10 µg/mL; MIC (Chaetomium globosum): 100 µg/mL
